{"source": "patent US10738028B2", "about": "“Spiro three-membered ring, spiro five-membered ring peptide deformylase inhibitor and use thereof in antibacteria and anti-tumor” (priority 2016, dated 2020)", "format_in_all_cases": "cell-based", "key": {"[1]": {"system": "Enterococcus faecalis (EFA)", "assay": "MIC, two-fold agar dilution (CLSI), clinical isolates", "outline": "(§1)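 Susceptibility was tested using CLSI two-fold agar dilution against the strains examined.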"}, "[2]": {"system": "Enterococcus faecium (EFM)", "assay": "MIC, two-fold agar dilution (CLSI), clinical isolates", "outline": "as §1"}, "[3]": {"system": "Escherichia coli (including ESBLs, non-ESBLs)", "assay": "MIC, two-fold agar dilution (CLSI), clinical isolates", "outline": "as §1"}, "[4]": {"system": "Moraxella catarrhalis (BCA)", "assay": "MIC, two-fold agar dilution (CLSI), clinical isolates", "outline": "as §1"}, "[5]": {"system": "Streptococcus pneoumoniae (SPN)", "assay": "MIC, two-fold agar dilution (CLSI), clinical isolates", "outline": "as §1"}, "[6]": {"system": "methicillin-resistant Staphylococcus aureus (MRSA)", "assay": "MIC, two-fold agar dilution (CLSI), clinical isolates", "outline": "as §1"}, "[7]": {"system": "methicillin-resistant Staphylococcus epidermidis (MRSE)", "assay": "MIC, two-fold agar dilution (CLSI), clinical isolates", "outline": "as §1"}, "[8]": {"system": "methicillin-sensitive Staphylococcus aureus (MSSA)", "assay": "MIC, two-fold agar dilution (CLSI), clinical isolates", "outline": "as §1"}, "[9]": {"system": "methicillin-sensitive Staphylococcus epidermidis (MSSE)", "assay": "MIC, two-fold agar dilution (CLSI), clinical isolates", "outline": "as §1"}, "[10]": {"system": "HCT-116 colorectal cancer cell line", "assay": "CCK-8 proliferation inhibition", "settings": "Homo sapiens, HCT-116, 72 h, concentration of 30 μM; 72 hours; CCK-8; read-out: HCT116 inhibition rate/%", "outline": "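Viability read-out: 1:10 diluted CCK-8 after 72 h compound exposure at 37 °C, 5% CO2. Cells (2000/well, McCoy's 5A plus 10% newborn bovine serum) pre-cultured overnight; vehicle control 1‰ DMSO.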"}}, "data": [{"molecule": "O=CN(O)C[C@@H](CC1CCCC1)C(=O)N1CC2(CC2)C[C@H]1c1nc2ccccc2[nH]1", "note": "[Example 42, N—((R)-3-((S)-6-(1H-benzimidazol-2-yl)-5-azaspiro[2.4]heptane-5-yl)-2-(cyclopentylmethyl)-3-propylcarbonyl)-N-hydroxyformamide]", "values": [{"measurement": "Anti-bacterial activity (MIC), strain EFA 15-1", "setting": "[1]; clinical isolate EFA 15-1", "value": 16, "unit": "µg/mL"}, {"measurement": "Anti-bacterial activity (MIC), strain EFA 15-2", "setting": "[1]; clinical isolate EFA 15-2", "value": 16, "unit": "µg/mL"}, {"measurement": "Anti-bacterial activity (MIC), strain EFA 15-3", "setting": "[1]; clinical isolate EFA 15-3", "value": 4, "unit": "µg/mL"}, {"measurement": "Anti-bacterial activity (MIC), strain EFA 15-4", "setting": "[1]; clinical isolate EFA 15-4", "value": 16, "unit": "µg/mL"}, {"measurement": "Anti-bacterial activity (MIC), strain EFA 15-5", "setting": "[1]; clinical isolate EFA 15-5", "value": 16, "unit": "µg/mL"}, {"measurement": "Anti-bacterial activity (MIC), strain EFA 15-6", "setting": "[1]; clinical isolate EFA 15-6", "value": 16, "unit": "µg/mL"}, {"measurement": "Anti-bacterial activity (MIC), strain EFA 15-9", "setting": "[1]; clinical isolate EFA 15-9", "value": 16, "unit": "µg/mL"}, {"measurement": "Anti-bacterial activity (MIC), strain EFM 15-1", "setting": "[2]; clinical isolate EFM 15-1", "value": 2, "unit": "µg/mL"}, {"measurement": "Anti-bacterial activity (MIC), strain EFM 15-2", "setting": "[2]; clinical isolate EFM 15-2", "value": 4, "unit": "µg/mL"}, {"measurement": "Anti-bacterial activity (MIC), strain EFM 15-3", "setting": "[2]; clinical isolate EFM 15-3", "value": 1, "unit": "µg/mL"}, {"measurement": "Anti-bacterial activity (MIC), strain EFM 15-4", "setting": "[2]; clinical isolate EFM 15-4", "value": 4, "unit": "µg/mL"}, {"measurement": "Anti-bacterial activity (MIC), strain EFM 15-5", "setting": "[2]; clinical isolate EFM 15-5", "value": 2, "unit": "µg/mL"}, {"measurement": "Anti-bacterial activity (MIC), strain EFM 15-6", "setting": "[2]; clinical isolate EFM 15-6", "value": 4, "unit": "µg/mL"}, {"measurement": "Anti-bacterial activity (MIC), strain ECO+ 15-1", "setting": "[3]; clinical isolate ECO+ 15-1", "value": 16, "unit": "µg/mL"}, {"measurement": "Anti-bacterial activity (MIC), strain ECO+ 15-2", "setting": "[3]; clinical isolate ECO+ 15-2", "value": 32, "unit": "µg/mL"}, {"measurement": "Anti-bacterial activity (MIC), strain ECO+ 15-3", "setting": "[3]; clinical isolate ECO+ 15-3", "value": 32, "unit": "µg/mL"}, {"measurement": "Anti-bacterial activity (MIC), strain ECO+ 15-4", "setting": "[3]; clinical isolate ECO+ 15-4", "value": 16, "unit": "µg/mL"}, {"measurement": "Anti-bacterial activity (MIC), strain ECO− 15-1", "setting": "[3]; clinical isolate ECO− 15-1", "value": 32, "unit": "µg/mL"}, {"measurement": "Anti-bacterial activity (MIC), strain ECO− 15-2", "setting": "[3]; clinical isolate ECO− 15-2", "value": 32, "unit": "µg/mL"}, {"measurement": "Anti-bacterial activity (MIC), strain ECO− 15-3", "setting": "[3]; clinical isolate ECO− 15-3", "value": 32, "unit": "µg/mL"}, {"measurement": "Anti-bacterial activity (MIC), strain ECO− 15-4", "setting": "[3]; clinical isolate ECO− 15-4", "value": 32, "unit": "µg/mL"}, {"measurement": "Anti-bacterial activity (MIC), strain BCA 14-1", "setting": "[4]; clinical isolate BCA 14-1", "value": 1, "unit": "µg/mL"}, {"measurement": "Anti-bacterial activity (MIC), strain BCA 14-4", "setting": "[4]; clinical isolate BCA 14-4", "value": 2, "unit": "µg/mL"}, {"measurement": "Anti-bacterial activity (MIC), strain BCA 14-5", "setting": "[4]; clinical isolate BCA 14-5", "value": 2, "unit": "µg/mL"}, {"measurement": "Anti-bacterial activity (MIC), strain BCA 14-6", "setting": "[4]; clinical isolate BCA 14-6", "value": 2, "unit": "µg/mL"}, {"measurement": "Anti-bacterial activity (MIC), strain BCA 14-7", "setting": "[4]; clinical isolate BCA 14-7", "value": 1, "unit": "µg/mL"}, {"measurement": "Anti-bacterial activity (MIC), strain BCA 14-8", "setting": "[4]; clinical isolate BCA 14-8", "value": 4, "unit": "µg/mL"}, {"measurement": "Anti-bacterial activity (MIC), strain BCA 14-10", "setting": "[4]; clinical isolate BCA 14-10", "value": 1, "unit": "µg/mL"}, {"measurement": "Anti-bacterial activity (MIC), strain SPN 16-2", "setting": "[5]; clinical isolate SPN 16-2", "value": 1, "unit": "µg/mL"}, {"measurement": "Anti-bacterial activity (MIC), strain SPN 16-4", "setting": "[5]; clinical isolate SPN 16-4", "value": 16, "unit": "µg/mL"}, {"measurement": "Anti-bacterial activity (MIC), strain MRSA 15-1", "setting": "[6]; clinical isolate MRSA 15-1", "value": 2, "unit": "µg/mL"}, {"measurement": "Anti-bacterial activity (MIC), strain MRSA 15-2", "setting": "[6]; clinical isolate MRSA 15-2", "value": 2, "unit": "µg/mL"}, {"measurement": "Anti-bacterial activity (MIC), strain MRSA 15-3", "setting": "[6]; clinical isolate MRSA 15-3", "value": 1, "unit": "µg/mL"}, {"measurement": "Anti-bacterial activity (MIC), strain MRSA 15-4", "setting": "[6]; clinical isolate MRSA 15-4", "value": 1, "unit": "µg/mL"}, {"measurement": "Anti-bacterial activity (MIC), strain MRSE 15-1", "setting": "[7]; clinical isolate MRSE 15-1", "value": 2, "unit": "µg/mL"}, {"measurement": "Anti-bacterial activity (MIC), strain MRSE 15-2", "setting": "[7]; clinical isolate MRSE 15-2", "value": 2, "unit": "µg/mL"}, {"measurement": "Anti-bacterial activity (MIC), strain MRSE 15-3", "setting": "[7]; clinical isolate MRSE 15-3", "value": 2, "unit": "µg/mL"}, {"measurement": "Anti-bacterial activity (MIC), strain MRSE 15-7", "setting": "[7]; clinical isolate MRSE 15-7", "value": 2, "unit": "µg/mL"}, {"measurement": "Anti-bacterial activity (MIC), strain MSSA 15-3", "setting": "[8]; clinical isolate MSSA 15-3", "value": 2, "unit": "µg/mL"}, {"measurement": "Anti-bacterial activity (MIC), strain MSSA 15-4", "setting": "[8]; clinical isolate MSSA 15-4", "value": 2, "unit": "µg/mL"}, {"measurement": "Anti-bacterial activity (MIC), strain MSSA 15-5", "setting": "[8]; clinical isolate MSSA 15-5", "value": 1, "unit": "µg/mL"}, {"measurement": "Anti-bacterial activity (MIC), strain MSSA 15-6", "setting": "[8]; clinical isolate MSSA 15-6", "value": 2, "unit": "µg/mL"}, {"measurement": "Anti-bacterial activity (MIC), strain MSSE 15-3", "setting": "[9]; clinical isolate MSSE 15-3", "value": 2, "unit": "µg/mL"}, {"measurement": "Anti-bacterial activity (MIC), strain MSSE 15-4", "setting": "[9]; clinical isolate MSSE 15-4", "value": 2, "unit": "µg/mL"}, {"measurement": "Anti-bacterial activity (MIC), strain MSSE 15-5", "setting": "[9]; clinical isolate MSSE 15-5", "value": 2, "unit": "µg/mL"}, {"measurement": "Anti-bacterial activity (MIC), strain MSSE 15-6", "setting": "[9]; clinical isolate MSSE 15-6", "value": 2, "unit": "µg/mL"}, {"measurement": "inhibition at 30 µM", "setting": "[10]", "value": 14, "unit": "%"}]}]}
